Changes are numbered by the printed parent chain. Read-outs that look alike come from different tables or passages of the source.
What was measured:
Test in all cases: URAT1 uric acid transport activity assay
Type in all cases: cell-based
[1] = molecular target: T1, r-N35S/M481I rURAT1 double point mutant (Rattus norvegicus, UniProt Q3ZAV1, M481I/N35S)
T1 construct: hURAT1 and rURAT1 are 553 amino acid proteins with 12 transmembrane segments; expressed in transfected cells; host or cells: HEK-293T
T1 sequence (Q3ZAV1 1-553 N35S/M481I): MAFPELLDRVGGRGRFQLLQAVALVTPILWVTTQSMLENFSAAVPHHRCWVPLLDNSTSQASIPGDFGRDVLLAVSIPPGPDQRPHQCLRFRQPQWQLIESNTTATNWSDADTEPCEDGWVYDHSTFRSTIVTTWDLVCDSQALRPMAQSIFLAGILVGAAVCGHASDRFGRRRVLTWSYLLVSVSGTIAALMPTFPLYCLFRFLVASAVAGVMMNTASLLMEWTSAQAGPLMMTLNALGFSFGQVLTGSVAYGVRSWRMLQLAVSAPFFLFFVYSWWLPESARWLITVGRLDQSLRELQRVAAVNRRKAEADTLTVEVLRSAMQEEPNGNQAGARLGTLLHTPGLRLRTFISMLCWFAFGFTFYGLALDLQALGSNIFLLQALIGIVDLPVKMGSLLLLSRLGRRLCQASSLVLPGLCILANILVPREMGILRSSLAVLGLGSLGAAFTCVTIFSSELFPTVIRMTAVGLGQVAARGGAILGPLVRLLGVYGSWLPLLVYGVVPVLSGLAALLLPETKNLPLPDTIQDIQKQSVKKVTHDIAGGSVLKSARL
Source text: (§1) hURAT1 (GenBank BC053348.1) and rURAT1 (NCBI NM_001034943.1) genes were purchased from Origene Technologies, Inc. and subcloned into pCMV6/neo using NotI, creating pCMV6/neo-hURAT1 and pCMV6/neo-rURAT1. Mutants were produced by polymerase chain reaction (PCR) or site-directed mutagenesis using the QuikChange Lightning Multi Site-Directed Mutagenesis Kit (Agilent Technologies). […] Detailed methods are provided in Supplementary Methods, and primers are listed in Supplementary Table 1. […] Residues in rURAT1 and hOAT1 that correspond to the residues in hURAT1 were identified from aligned protein sequences (Supplementary Fig. 1)[50].
(§2) DNA (10 μg) was mixed with 30 μl of DreamFect Gold (Boca Scientific) in 2 ml OptiMem (Life Technologies). After 20 minutes, 18 ml of media containing 2 × 10^7 cells in suspension was added and mixed, and 200 μl per well were plated onto white clear-bottomed poly-D-lysine coated 96-well plates (BD Biosciences). The cells were assayed the following day.
(§3) Compounds were serially diluted into assay buffer and added to the cells for 5 minutes prior to addition of radiolabelled uric acid substrate. URAT1-expressing cells were incubated with 100 μM ^14C-uric acid for 10 minutes. […] Each treatment was measured in triplicate.
(§4) Unlabelled uric acid was prepared at a 20 mM stock just prior to use in a solution containing 20 mM dibasic potassium phosphate and 20 mM potassium hydroxide.
(§5) Nonlinear regression analyses using GraphPad Prism software were used to calculate the potency of URAT1 inhibitors (IC50 values) from log (inhibitor) versus response - variable slope (four parameters) equations. Statistical significance was assessed using Student’s unpaired t-tests.

[2] = molecular target: T2, r-M481I rURAT1 point mutant (Rattus norvegicus, UniProt Q3ZAV1, M481I)
T2 sequence (Q3ZAV1 1-553 M481I): T1 sequence (Q3ZAV1 1-553 N35S/M481I) with S35N
Source text: as §1, §2, §3, §4, §5

[3] = molecular target: T3, r-Y365F rURAT1 point mutant (Rattus norvegicus, UniProt Q3ZAV1, Y365F); conditions: for fold increased affinity of r-Y365F compared to rURAT1: from IC50 values
T3 sequence (Q3ZAV1 1-553 Y365F): T1 sequence (Q3ZAV1 1-553 N35S/M481I) with S35N, Y365F, I481M
Source text: as §1, §2, §3, §4, §5

[4] = r-Y365F, MES pH 5.5, 100 μM 14C-uric acid, read-out: IC50 (uric acid transport)

`CCc1oc2ccccc2c1C(=O)c1cc(Br)c(O)c(Br)c1` [benzbromarone] gave an IC50 [1] of 9 ± 1.5 µM, an IC50 [2] of 15 ± 1.1 µM and an IC50 [3] of 9.4 ± 1.6 µM.
For `O=c1[nH]c(=O)c2[nH]c(=O)[nH]c2[nH]1` [uric acid], the “fold increased affinity of r-Y365F compared to rURAT1” value [3] was 1.6 fold and the IC50 [3, 4] was 1640 µM.
With `O=C1C(CC[S+]([O-])c2ccccc2)C(=O)N(c2ccccc2)N1c1ccccc1` (stereo not shown) [sulfinpyrazone] the IC50 ([1]; r-N35S/M481I, HEPES pH 7.3, 100 μM 14C-uric acid, read-out: IC50 (uric acid transport)) was 176 ± 44 µM, the “fold increased affinity of r-M481I compared to rURAT1” value ([2]; from IC50 values) was 1.7 fold and the IC50 ([2]; r-M481I, HEPES pH 7.3, 100 μM 14C-uric acid, read-out: IC50 (uric acid transport)) was 395 ± 68 µM. For the same molecule, the “fold increased affinity of r-Y365F compared to rURAT1” value [3] was 2.7 fold and the IC50 ([3]; r-Y365F, HEPES pH 7.3, 100 μM 14C-uric acid, read-out: IC50 (uric acid transport)) was 255 ± 27 µM.
In the case of `O=C(O)CSc1nnc(Br)n1-c1ccc(C2CC2)c2ccccc12` [lesinurad, 2-((5-bromo-4-(4-cyclopropylnaphthalen-1-yl)-4H-1,2,4-triazol-3-yl)thio)acetic acid], the IC50 ([1]; r-N35S/M481I, MES pH 5.5, 100 μM 14C-uric acid, read-out: IC50 (uric acid transport)) is reported as 29 ± 1.2 µM, the IC50 ([2]; r-M481I, MES pH 5.5, 100 μM 14C-uric acid, read-out: IC50 (uric acid transport)) is reported as 71 ± 3 µM and the IC50 [3, 4] is reported as 15 ± 3 µM.
